Each compound was assayed against T1, ALK (Homo sapiens, UniProt Q9UM73) (assay: ALK kinase assay (HTRF)). Details: apparent Ki from IC50 by Cheng-Prusoff; ALK (Millipore) 3 nM or 4 nM, 50 μM ATP, 1 h at room temperature; read-out: HTRF_ALK Human - Ki.
T1 construct: purchased Millipore
Assay type: biochemical

T1 sequence (Q9UM73 19-1620): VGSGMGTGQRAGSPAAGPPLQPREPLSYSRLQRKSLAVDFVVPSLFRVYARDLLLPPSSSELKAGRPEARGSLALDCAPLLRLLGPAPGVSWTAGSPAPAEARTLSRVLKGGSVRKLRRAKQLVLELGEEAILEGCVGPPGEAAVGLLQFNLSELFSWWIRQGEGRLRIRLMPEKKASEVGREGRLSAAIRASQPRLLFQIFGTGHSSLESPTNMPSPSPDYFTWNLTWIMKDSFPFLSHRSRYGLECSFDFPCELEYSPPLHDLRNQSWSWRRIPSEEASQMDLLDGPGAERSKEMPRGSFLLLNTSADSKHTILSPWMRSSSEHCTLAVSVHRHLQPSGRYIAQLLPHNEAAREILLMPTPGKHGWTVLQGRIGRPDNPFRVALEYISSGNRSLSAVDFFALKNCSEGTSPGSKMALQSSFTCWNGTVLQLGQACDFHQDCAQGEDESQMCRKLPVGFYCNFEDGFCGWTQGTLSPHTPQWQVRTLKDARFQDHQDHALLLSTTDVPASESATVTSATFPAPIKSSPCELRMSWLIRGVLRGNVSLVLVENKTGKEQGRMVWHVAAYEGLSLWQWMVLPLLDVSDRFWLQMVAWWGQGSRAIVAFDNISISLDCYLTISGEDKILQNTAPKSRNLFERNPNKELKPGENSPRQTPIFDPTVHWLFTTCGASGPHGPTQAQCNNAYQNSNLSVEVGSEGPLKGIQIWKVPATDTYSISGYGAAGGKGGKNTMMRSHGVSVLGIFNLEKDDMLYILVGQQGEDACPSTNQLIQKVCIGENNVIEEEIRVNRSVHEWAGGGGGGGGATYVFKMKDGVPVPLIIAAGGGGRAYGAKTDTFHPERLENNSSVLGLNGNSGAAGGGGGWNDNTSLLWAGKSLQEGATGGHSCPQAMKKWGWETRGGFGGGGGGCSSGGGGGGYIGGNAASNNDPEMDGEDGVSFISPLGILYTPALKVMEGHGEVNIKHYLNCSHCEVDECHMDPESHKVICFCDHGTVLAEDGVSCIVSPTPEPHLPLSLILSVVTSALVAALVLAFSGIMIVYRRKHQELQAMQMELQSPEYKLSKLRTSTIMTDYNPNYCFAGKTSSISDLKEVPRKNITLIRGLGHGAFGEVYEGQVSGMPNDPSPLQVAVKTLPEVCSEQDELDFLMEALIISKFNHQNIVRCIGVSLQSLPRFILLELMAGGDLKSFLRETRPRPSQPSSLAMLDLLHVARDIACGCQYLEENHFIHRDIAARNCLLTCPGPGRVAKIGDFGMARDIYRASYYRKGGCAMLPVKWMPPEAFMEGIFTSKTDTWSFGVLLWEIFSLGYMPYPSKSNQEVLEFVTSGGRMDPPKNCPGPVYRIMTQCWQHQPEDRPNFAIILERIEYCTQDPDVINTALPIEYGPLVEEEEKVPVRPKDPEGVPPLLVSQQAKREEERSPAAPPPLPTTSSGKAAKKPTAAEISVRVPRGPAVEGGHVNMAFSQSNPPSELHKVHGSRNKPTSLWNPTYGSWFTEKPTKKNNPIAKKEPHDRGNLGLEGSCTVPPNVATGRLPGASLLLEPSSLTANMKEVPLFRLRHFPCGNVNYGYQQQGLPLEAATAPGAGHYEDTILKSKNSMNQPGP

| SMILES | Ki [nM] |
| --- | --- |
| COc1cc2c(cc1Nc1cc(Cc3c(Cl)cccc3Cl)cc3cn[nH]c(=O)c13)CNCC2 [Example 74, 6-(2,6-dichlorobenzyl)-8-[(6-methoxy-1,2,3,4-tetrahydroisoquinolin-7-yl)amino]phthalazin-1(2H)-one] | 4 |
| COc1cc(N2CCNCC2)ccc1Nc1nc(Oc2c(F)cccc2F)cc2cn[nH]c(=O)c12 [Example 75, 7-(2,6-difluorophenoxy)-5-{[2-methoxy-4-(piperazin-1-yl)phenyl]amino}pyrido[3,4-d]pyridazin-4(3H)-one] | 4 |
| COc1cc(N2CCNCC2)ccc1Nc1nc(Oc2ccccc2F)cc2cnnc(O)c12 [Example 76, 7-(2-fluorophenoxy)-5-{[2-methoxy-4-(piperazin-1-yl)phenyl]amino}pyrido[3,4-d]pyridazin-4-ol] | 4 |
| COc1cc(N2CCNCC2)ccc1Nc1nc(Nc2ccc(Cl)c(Cl)c2Cl)cc2cn[nH]c(=O)c12 [Example 77, 5-{[2-methoxy-4-(piperazin-1-yl)phenyl]amino}-7-[(2,3,4-trichlorophenyl)amino]pyrido[3,4-d]pyridazin-4(3H)-one] | 4 |
| COc1cc(N2CCNCC2)ccc1Nc1nc(Oc2cccc(F)c2F)cc2cnnc(O)c12 [Example 78, 7-(2,3-difluorophenoxy)-5-{[2-methoxy-4-(piperazin-1-yl)phenyl]amino}pyrido[3,4-d]pyridazin-4-ol] | 4 |
| COc1cc(N2CCNCC2)ccc1Nc1nc(Oc2cccc(Cl)c2Cl)cc2cn[nH]c(=O)c12 [Example 79, 7-(2,3-dichlorophenoxy)-5-{[2-methoxy-4-(piperazin-1-yl)phenyl]amino}pyrido[3,4-d]pyridazin-4(3H)-one] | 5 |
| COc1cc(N2CCNCC2)ccc1Nc1nc(Oc2c(Cl)cc(F)cc2Cl)cc2cn[nH]c(=O)c12 [Example 80, 7-(2,6-dichloro-4-fluorophenoxy)-5-{[2-methoxy-4-(piperazin-1-yl)phenyl]amino}pyrido[3,4-d]pyridazin-4(3H)-one] | 1 |
| COc1cc(N2CCNCC2)ccc1Nc1nc(Oc2ccncc2Cl)cc2cn[nH]c(=O)c12 [Example 81, 7-[(3-chloropyridin-4-yl)oxy]-5-{[2-methoxy-4-(piperazin-1-yl)phenyl]amino}pyrido[3,4-d]pyridazin-4(3H)-one] | > 470 |
| COc1cc(N2CCNCC2)ccc1Nc1nc(Oc2cccc(C)c2C)cc2cnnc(O)c12 [Example 82, 7-(2,3-dimethylphenoxy)-5-{[2-methoxy-4-(piperazin-1-yl)phenyl]amino}pyrido[3,4-d]pyridazin-4-ol] | 4 |
| COc1cc(N2CCNCC2)ccc1Nc1nc(Oc2ccncc2F)cc2cnnc(O)c12 [Example 83, 7-[(3-fluoropyridin-4-yl)oxy]-5-{[2-methoxy-4-(piperazin-1-yl)phenyl]amino}pyrido[3,4-d]pyridazin-4-ol] | > 470 |

Second part, the compound after the results:

| Ki [nM] | SMILES |
| --- | --- |
| 5 | COc1cc(N2CCNCC2)ccc1Nc1nc(Oc2ccc(Cl)c(Cl)c2Cl)cc2cnnc(O)c12 [Example 84, 5-{[2-methoxy-4-(piperazin-1-yl)phenyl]amino}-7-(2,3,4-trichlorophenoxy)pyrido[3,4-d]pyridazin-4-ol] |
| 5 | COc1cc(N2CCNCC2)ccc1Nc1nc(Oc2ccc(Cl)cc2Cl)cc2cn[nH]c(=O)c12 [Example 85, 7-(2,4-dichlorophenoxy)-5-{[2-methoxy-4-(piperazin-1-yl)phenyl]amino}pyrido[3,4-d]pyridazin-4(3H)-one] |
| 2 | COc1cc(N2CCNCC2)ccc1Nc1nc(N[C@H]2CC[C@H](O)CC2)cc2cnnc(O)c12 [Example 86, 7-[(trans-4-hydroxycyclohexyl)amino]-5-{[2-methoxy-4-(piperazin-1-yl)phenyl]amino}pyrido[3,4-d]pyridazin-4-ol] |
| 4 | COc1cc(N2CCNCC2)ccc1Nc1nc(OC2CCCC2)cc2cnnc(O)c12 [Example 87, 7-(cyclopentyloxy)-5-{[2-methoxy-4-(piperazin-1-yl)phenyl]amino}pyrido[3,4-d]pyridazin-4-ol] |
